Test results: patent US20260130901A1, “CGRP RECEPTOR ANTAGONIST FOR THE TREATMENT OF MIGRAINE” (ALLERGAN PHARMACEUTICALS INTERNATIONAL LIMITED, priority 2022, published 2026)

What was measured:
Assay type in all cases: in vivo, human
[1] = tested on: participants with migraine (qualifying prodrome events); experiment: Phase 3 crossover study: absence of aura at timepoints post dose; conditions: 100 mg in prodrome, mITT
Description: (§1) A phase 3, multicenter, randomized, double-blind, placebo-controlled, crossover study was carried out to evaluate the efficacy, safety, and tolerability of oral ubrogepant in the acute treatment of migraine when administered during the prodrome. The study evaluated whether treatment during the initial phase of a migraine attack (i.e., the prodrome or premonitory phase) prior to the onset of headache, can attenuate the severity of the headache phase and reduce disability.
(§2) Eligible participants were randomized (1:1) to treatment sequences A or B in this crossover study. Participants randomized to Treatment Sequence A received placebo to treat their first qualifying prodrome event and ubrogepant 100 mg to treat their second qualifying prodrome event. For those randomized to Treatment Sequence B, they received the reverse: ubrogepant 100 mg to treat their first qualifying prodrome event and placebo to treat their second qualifying prodrome event.
N1 is the number of patients with non-missing aura presence assessment at timepoint.

[2] = tested on: participants with migraine (qualifying prodrome events); experiment: Phase 3 crossover study: ability to function normally (Functional Disability Scale); conditions: 100 mg in prodrome, mITT
Description: as §1, §2
The primary efficacy endpoint was the absence of a headache of moderate/severe intensity within 24 hours after taking double-blind study intervention during the prodrome. The secondary efficacy endpoints were the absence of a headache of moderate or severe intensity within 48 hours, ability to function normally over 24 hours, and absence of a headache of any intensity within 24 hours after taking double blind study interventions during the prodrome.
A responder for ability to function normally is a participant having a score of 0 (no disability, able to function normally) on the Functional Disability Scale (FDS), and a non-responder is one having a score of 1 (Mildly impaired, can still do everything but with difficulty) to 3 (Severely impaired, cannot do all or most things, bed rest may be necessary).

[3] = tested on: participants with migraine (qualifying prodrome events); experiment: Phase 3 crossover study: safety and tolerability, adverse events (safety population)
Description: as §1, §2
Participant flow is illustrated in FIG. 2. The safety population included all treated participants who took at least one administration of study drug. The modified intent-to-treat (mITT) population included all randomized participants with at least one assessment of headache occurrence within 24 hours after taking double-blind study drug for at least one qualifying prodrome event. The most common reasons for failure to meet inclusion criteria were: lack of 3 to 16 recorded qualifying prodrome events during screening (144 of 317), failure to report headache of any intensity within 1 to 6 hours following at least 75% of qualifying prodrome events (123 of 317), and participant provided a negative response for the ability (by history) to identify migraine attacks in which prodromal symptoms were present and reliably (at least 75% of the time) followed by headache within 1 to 6 hours (23 of 317
Tables 20 and 21 provide an overall summary of adverse events during the double-blind treatment period for the safety population.
The most common TEAEs (≥2% in either treatment group) within 48 hours following administration of study intervention were nausea (placebo 15 of 462 [3.2%], ubrogepant 23 of 456 [5.0%]); dizziness (placebo 12 of 462 [2.6%], ubrogepant 11 of 456 [2.4%]), fatigue (placebo 7 of 462 [1.5%], ubrogepant 12 of 456 [2.6%]) and somnolence (placebo 5 of 462 [1.1%], ubrogepant 11 of 456 [2.4%]). Nausea (placebo 3.7%, ubrogepant 5.3%) was also the most common TEAE within 30 days following administration of study intervention.

[4] = 100 mg, within 48 hours following administration
[5] = 100 mg, within 48 hours following administration, safety population
[6] = ubrogepant 100 mg (N = 456), within 48 hours following administration, safety population
[7] = ubrogepant 100 mg (N = 456), within 30 days following administration, safety population

SMILES: C[C@@H]1[C@H](c2ccccc2)C[C@H](NC(=O)c2cnc3c(c2)C[C@@]2(C3)C(=O)Nc3ncccc32)C(=O)N1CC(F)(F)F [Ubrogepant, (3′S)—N-((3S,5S,6R)-6-methyl-2-oxo-5-phenyl-1-(2,2,2-trifluoroethyl)piperidin-3-yl)-2′-oxo-1′,2′,5,7-tetrahydrospiro[cyclopenta[b]pyridine-6,3′-pyrrolo[2,3-b]pyridine]-3-carboxamide]
- Absence of aura, Nonresponder (%) ([1]; 48 Hours post dose): (2.6) %
- Absence of aura, OR vs placebo ([1]; 48 Hours post dose): 3.05
- Absence of aura, Responder (%) ([1]; 48 Hours post dose): (97.4) %
- Absence of aura, Nonresponder (%) ([1]; 1 hour post dose): (38.3) %
- Absence of aura, OR vs placebo ([1]; 1 hour post dose): 0.99
- Absence of aura, Responder (%) ([1]; 1 hour post dose): (61.7) %
- Absence of aura, Nonresponder (%) ([1]; 2 hours post dose): (28.1) %
- Absence of aura, OR vs placebo ([1]; 2 hours post dose): 1.13
- Absence of aura, Responder (%) ([1]; 2 hours post dose): (71.9) %
- Absence of aura, Nonresponder (%) ([1]; 3 hours post dose): (23.0) %
- Absence of aura, OR vs placebo ([1]; 3 hours post dose): 0.96
- Absence of aura, Responder (%) ([1]; 3 hours post dose): (77.0) %
- Absence of aura, Nonresponder (%) ([1]; 4 hours post dose): (19.1) %
- Absence of aura, OR vs placebo ([1]; 4 hours post dose): 1.12
- Absence of aura, Responder (%) ([1]; 4 hours post dose): (80.9) %
- Absence of aura, Nonresponder (%) ([1]; 6 hours post dose): (15.3) %
- Absence of aura, OR vs placebo ([1]; 6 hours post dose): 1.05
- Absence of aura, Responder (%) ([1]; 6 hours post dose): (84.7) %
- Absence of aura, Nonresponder (%) ([1]; 8 hours post dose): (10.5) %
- Absence of aura, OR vs placebo ([1]; 8 hours post dose): 1.10
- Absence of aura, Responder (%) ([1]; 8 hours post dose): (89.5) %
- Absence of aura, Nonresponder (%) ([1]; 24 hours post dose): (5.3) %
- Absence of aura, OR vs placebo ([1]; 24 hours post dose): 1.48
- Absence of aura, Responder (%) ([1]; 24 hours post dose): (94.7) %
- Ability to function normally, Nonresponder (%) ([2]; 1 hour post dose): (74.4) %
- Ability to function normally, Odds Ratio vs. Placebo ([2]; 1 hour post dose): 1.29
- Ability to function normally, Responder (%) ([2]; 1 hour post dose): (25.6) %
- Ability to function normally, Nonresponder (%) ([2]; 2 hours post dose): (63.0) %
- Ability to function normally, Odds Ratio vs. Placebo ([2]; 2 hours post dose): 1.73
- Ability to function normally, Responder (%) ([2]; 2 hours post dose): (37.0) %
- Ability to function normally, Responder (%) ([2]; 2 hours post dose, listed as ubrogepant): 37.0%
- Ability to function normally, Nonresponder (%) ([2]; 3 hours post dose): (51.7) %
- Ability to function normally, Odds Ratio vs. Placebo ([2]; 3 hours post dose): 1.71
- Ability to function normally, Responder (%) ([2]; 3 hours post dose): (48.3) %
- Ability to function normally, Nonresponder (%) ([2]; 4 hours post dose): (41.0) %
- Ability to function normally, Odds Ratio vs. Placebo ([2]; 4 hours post dose): 1.97
- Ability to function normally, Responder (%) ([2]; 4 hours post dose): (59.0) %
- Ability to function normally, Nonresponder (%) ([2]; 6 hours post dose): (32.7) %
- Ability to function normally, Odds Ratio vs. Placebo ([2]; 6 hours post dose): 1.78
- Ability to function normally, Responder (%) ([2]; 6 hours post dose): (67.3) %
- Ability to function normally, Nonresponder (%) ([2]; 8 hours post dose): (25.0) %
- Ability to function normally, Odds Ratio vs. Placebo ([2]; 8 hours post dose): 1.84
- Ability to function normally, Responder (%) ([2]; 8 hours post dose): (75.0) %
- Ability to function normally, Nonresponder (%) ([2]; 24 hours post dose): (11.1) %
- Ability to function normally, Odds Ratio vs. Placebo ([2]; 24 hours post dose): 1.41
- Ability to function normally, Responder (%) ([2]; 24 hours post dose): (88.9) %
- Ability to function normally over 24 hours, Geometric Mean Odds Ratio vs. Placebo ([2]; overall, all timepoints through 24 hours): 1.66
- Safety results ([3]; 100 mg in prodrome): generally consistent with the known safety profile of ubrogepant
- Tolerability ([3]; 100 mg in prodrome): well-tolerated
- nausea, fatigue, dizziness, and somnolence, % of participants reporting ([3]; 100 mg in prodrome): ≤ 5%
- TEAE dizziness, % of participants [3, 4]: 2.4%
- TEAE fatigue, % of participants [3, 4]: 2.6%
- TEAE nausea, % of participants [3, 4]: 5.0%
- TEAE somnolence, % of participants [3, 4]: 2.4%
- Adverse event leading to discontinuation (ADO), % of participants [3, 5]: (0.0) %
- Death, % of participants [3, 5]: (0.0) %
- Treatment-emergent Serious adverse events (TESAE), % of participants [3, 5]: (0.0) %
- Treatment-emergent adverse events (TEAE), % of participants [3, 5]: (16.9) %
- Treatment-related TEAEs, % of participants [3, 5]: (13.2) %
- Treatment-related TESAEs, % of participants [3, 5]: (0.0) %
- TEAE nausea, % of participants ([3]; 100 mg, within 30 days following administration): 5.3%
- Discontinuation during the DB treatment period due to adverse events ([3]; safety population): No participant was discontinued
- TEAE Dizziness, % [3, 6]: (2.4) %
- TEAE Fatigue, % [3, 6]: (2.6) %
- TEAE Nausea, % [3, 6]: (5.0) %
- TEAE Somnolence, % [3, 6]: (2.4) %
- Adverse event leading to discontinuation (ADO), % [3, 7]: (0.0) %
- Death, % [3, 7]: (0.0) %
- TEAE Dizziness, % [3, 7]: (2.4) %
- TEAE Fatigue, % [3, 7]: (2.6) %
- TEAE Nausea, % [3, 7]: (5.3) %
- TEAE Somnolence, % [3, 7]: (2.4) %
- Treatment-emergent Serious adverse events (TESAE), % [3, 7]: (0.0) %
- Treatment-emergent adverse events (TEAE), % [3, 7]: (19.7) %
- Treatment-related TEAEs, % [3, 7]: (13.2) %
- Treatment-related TESAEs, % [3, 7]: (0.0) %
